Assay results from US11325899B2, “Benzofurane and benzothiophene derivatives as PGE2 receptor modulators” (IDORSIA PHARMACEUTICALS LTD, priority 2017, dated 2022).

Tests used:
[1] = target: T1, PTGER2 (EP2) (Homo sapiens, UniProt P43116); assay: hEP2 b-arrestin assay (PathHunter HEK 293 PTGER2 b-arrestin cells); format: cell-based; settings: antagonistic activity, beta-arrestin assay; read-out: hEP2 b-arr IC50
T1 construct: host or cells: HEK 293 (PathHunter PTGER2 b-arrestin cell line)
In short: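 Antagonism measured as inhibition of PGE2-driven β-arrestin 2 recruitment (enzyme fragment complementation, luminescence) in engineered HEK293 EP2 cells. Agonist: 5 μM PGE2, ~EC80, 120 min at 37 °C after 15 min compound preincubation; test range 10 μM-2 nM or 1 μM-0.2 nM, duplicates, IC50 fitted.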

[2] = target: T2, PTGER4 (EP4) (Homo sapiens, UniProt P35408); assay: hEP4 b-arrestin assay (PathHunter HEK 293 PTGER4 b-arrestin cells); format: cell-based; settings: antagonistic activity, beta-arrestin assay; read-out: hEP4 b-arr IC50
T2 construct: host or cells: HEK 293 (PathHunter PTGER4 b-arrestin cell line)
In short: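 β-Arrestin recruitment to EP4 was read as enzyme-fragment-complementation chemiluminescence in stably transfected HEK 293 cells. After 15 min compound preincubation at 37 °C (ranges 10 μM–2 nM or 1 μM–0.2 nM), cells were stimulated 120 min with PGE2 at 20 nM, its EC80. IC50 values were fitted from duplicates, with repeat measurements averaged.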

T1 sequence (P43116 whole entry): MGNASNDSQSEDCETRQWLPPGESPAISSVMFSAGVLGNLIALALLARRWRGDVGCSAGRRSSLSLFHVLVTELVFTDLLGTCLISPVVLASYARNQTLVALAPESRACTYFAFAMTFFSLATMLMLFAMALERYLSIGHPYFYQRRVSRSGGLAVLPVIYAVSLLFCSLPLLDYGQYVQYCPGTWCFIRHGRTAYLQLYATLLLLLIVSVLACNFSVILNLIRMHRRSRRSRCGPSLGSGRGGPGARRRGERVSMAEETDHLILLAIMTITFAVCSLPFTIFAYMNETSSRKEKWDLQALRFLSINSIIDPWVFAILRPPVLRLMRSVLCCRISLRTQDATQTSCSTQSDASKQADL
T2 sequence (P35408 whole entry): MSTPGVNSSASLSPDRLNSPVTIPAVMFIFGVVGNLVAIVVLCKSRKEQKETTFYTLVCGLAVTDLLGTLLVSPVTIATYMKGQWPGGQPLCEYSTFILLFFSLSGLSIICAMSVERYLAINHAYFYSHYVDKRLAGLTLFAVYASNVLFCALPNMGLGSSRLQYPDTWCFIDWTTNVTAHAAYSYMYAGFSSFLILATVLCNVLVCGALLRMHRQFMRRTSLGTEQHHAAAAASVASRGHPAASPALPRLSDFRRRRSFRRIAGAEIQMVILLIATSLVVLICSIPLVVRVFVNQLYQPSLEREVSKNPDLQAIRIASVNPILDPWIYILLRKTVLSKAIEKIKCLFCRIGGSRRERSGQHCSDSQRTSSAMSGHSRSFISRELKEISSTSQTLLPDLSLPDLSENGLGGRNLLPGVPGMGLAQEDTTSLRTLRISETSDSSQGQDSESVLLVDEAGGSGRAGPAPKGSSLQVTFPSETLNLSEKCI

`CSc1cc(-c2cc(NCCc3c(C)sc4ccccc34)ncn2)ccc1C(=O)O` [Example 24, 4-{6-[2-(2-Methyl-benzo[b]thiophen-3-yl)-ethylamino]-pyrimidin-4-yl}-2-methylsulfanyl-benzoic acid] was tested, and the IC50 [1] was 3 nM and the IC50 [2] was 3420 nM.
`CCOc1cc(-c2cc(NCCc3c(C)sc4c(OC)ccc(Cl)c34)ncn2)sc1C(=O)O` [Example 30, 5-{6-[2-(4-Chloro-7-methoxy-2-methyl-benzo[b]thiophen-3-yl)-ethylamino]-pyrimidin-4-yl}-3-ethoxy-thiophene-2-carboxylic acid] was tested, and the IC50 [1] was 10 nM and the IC50 [2] was 18 nM.
For `CCOc1cc(-c2cc(NCCc3c(C)sc4c(OC)ccc(F)c34)ncn2)sc1C(=O)O` [Example 28, 3-Ethoxy-5-{6-[2-(4-fluoro-7-methoxy-2-methyl-benzo[b]thiophen-3-yl)-ethylamino]-pyrimidin-4-yl}-thiophene-2-carboxylic acid], the IC50 [1] was 2 nM and the IC50 [2] was 5 nM.
Work on `CCOc1cc(-c2cc(NCCc3c(C)oc4c(C)cc(F)cc34)ncn2)ccc1C(=O)O` [Example 69, 2-Ethoxy-4-{6-[2-(5-fluoro-2,7-dimethyl-benzofuran-3-yl)-ethylamino]-pyrimidin-4-yl}-benzoic acid] yielded an IC50 [1] of 24 nM and an IC50 [2] of 668 nM.
In the case of `Cc1sc2c(C)cc(F)cc2c1CCNc1cc(-c2cc(C(F)(F)F)c(C(=O)O)s2)ncn1` [Example 46, 5-{6-[2-(5-Fluoro-2,7-dimethyl-benzo[b]thiophen-3-yl)-ethylamino]-pyrimidin-4-yl}-3-trifluoromethyl-thiophene-2-carboxylic acid], the IC50 [1] is reported as 46 nM and the IC50 [2] is reported as 93 nM.
Compound `Cc1sc2c(C)cc(F)cc2c1CCNc1cc(-c2ccc(-c3nc(=O)[nH]o3)cc2)ncn1` [Example 79, 5-(4-{6-[2-(5-Fluoro-2,7-dimethyl-benzo[b]thiophen-3-yl)-ethylamino]-pyrimidin-4-yl}-phenyl)-[1,2,4]oxadiazol-3(2H)-one [tautomeric form: 5-(4-(6-((2-(5-fluoro-2,7-dimethylbenzo[b]thiophen-3-yl)ethyl)amino)pyrimidin-4-yl)phenyl)-[1,2,4]oxadiazol-3-ol]] has an IC50 [1] of 26 nM and an IC50 [2] of 263 nM.
In the case of `CCOc1cc(-c2cc(NCCc3c(C)sc4c(C)c(F)ccc34)ncn2)ccc1C(=O)O` [Example 62, 2-Ethoxy-4-{6-[2-(6-fluoro-2,7-dimethyl-benzo[b]thiophen-3-yl)-ethylamino]-pyrimidin-4-yl}-benzoic acid], the IC50 [1] is reported as 12 nM and the IC50 [2] is reported as 499 nM.
Compound `CCSc1cc(-c2cc(NCCc3c(C)oc4ccccc34)ncn2)ccc1C(=O)O` [Example 44, 2-Ethylsulfanyl-4-{6-[2-(2-methyl-benzofuran-3-yl)-ethylamino]-pyrimidin-4-yl}-benzoic acid] has an IC50 [1] of 1 nM and an IC50 [2] of 1020 nM.
Compound `CCOc1cc(-c2cc(NCCc3c(C)sc4c(C)cc(F)cc34)ncn2)sc1CC(=O)O` [Example 52, (3-Ethoxy-5-{6-[2-(5-fluoro-2,7-dimethyl-benzo[b]thiophen-3-yl)-ethylamino]-pyrimidin-4-yl}-thiophen-2-yl)-acetic acid] has an IC50 [1] of 46 nM and an IC50 [2] of 133 nM.
`CCCSc1cc(-c2cc(NCCc3c(C)sc4c(C)cccc34)ncn2)ccc1C(=O)O` [Example 87, 4-{6-[2-(2,7-Dimethyl-benzo[b]thiophen-3-yl)-ethylamino]-pyrimidin-4-yl}-2-propylsulfanyl-benzoic acid] gave an IC50 [1] of 5 nM and an IC50 [2] of 318 nM.
`Cc1sc2ccccc2c1CCNc1cc(-c2ccc(C(=O)O)c(SC(C)C)c2)ncn1` [Example 91, 2-Isopropylsulfanyl-4-{6-[2-(2-methyl-benzo[b]thiophen-3-yl)-ethylamino]-pyrimidin-4-yl}-benzoic acid] gave an IC50 [1] of 20 nM and an IC50 [2] of 843 nM.
With `CSc1cc(-c2cc(NCCc3c(C)sc4c(C)cccc34)ncn2)cc(F)c1C(=O)O` [Example 47, 4-{6-[2-(2,7-Dimethyl-benzo[b]thiophen-3-yl)-ethylamino]-pyrimidin-4-yl}-2-fluoro-6-methylsulfanyl-benzoic acid] the IC50 [1] was 10 nM and the IC50 [2] was 807 nM.
With `CCOc1cc(-c2cc(NCCc3c(C)sc4c(C)cc(F)cc34)ncn2)ccc1-c1cc(O)no1` [Example 202, 5-(2-Ethoxy-4-{6-[2-(5-fluoro-2,7-dimethyl-benzo[b]thiophen-3-yl)-ethylamino]-pyrimidin-4-yl}-phenyl)-isoxazol-3-ol [tautomeric form: 5-(2-ethoxy-4-(6-((2-(5-fluoro-2,7-dimethylbenzo[b]thiophen-3-yl)ethyl)amino)pyrimidin-4-yl)phenyl)isoxazol-3(2H)-one]] the IC50 [1] was 17 nM and the IC50 [2] was 100 nM.
For `CSc1cc(-c2cc(NCCc3c(C)sc4c(C)cccc34)ncn2)cc(Cl)c1C(=O)O` [Example 50, 2-Chloro-4-{6-[2-(2,7-dimethyl-benzo[b]thiophen-3-yl)-ethylamino]-pyrimidin-4-yl}-6-methylsulfanyl-benzoic acid], the IC50 [1] was 18 nM and the IC50 [2] was 432 nM.
Work on `CCOc1cc(-c2cc(NCCc3c(C)sc4c(Cl)ccc(Cl)c34)ncn2)ccc1C(=O)O` [Example 63, 4-{6-[2-(4,7-Dichloro-2-methyl-benzo[b]thiophen-3-yl)-ethylamino]-pyrimidin-4-yl}-2-ethoxy-benzoic acid] yielded an IC50 [1] of 27 nM and an IC50 [2] of 461 nM.
In the case of `COc1cc(F)c(F)c2c(CCNc3cc(-c4ccc(C(=O)O)c(OC5CC5)c4)ncn3)c(C)oc12` [Example 85, 2-Cyclopropoxy-4-{6-[2-(4,5-difluoro-7-methoxy-2-methyl-benzofuran-3-yl)-ethylamino]-pyrimidin-4-yl}-benzoic acid], the IC50 [1] is reported as 68 nM and the IC50 [2] is reported as 374 nM.
Compound `CCOc1cc(-c2cc(NCCc3c(C#N)sc4c(C)cc(F)cc34)ncn2)ccc1C(=O)O` [Example 53, 4-{6-[2-(2-Cyano-5-fluoro-7-methyl-benzo[b]thiophen-3-yl)-ethylamino]-pyrimidin-4-yl}-2-ethoxy-benzoic acid] has an IC50 [1] of 9 nM and an IC50 [2] of 34 nM.
For `Cc1sc2c(C)cccc2c1CCNc1cc(-c2ccc3cc(C(=O)O)oc3c2)ncn1` [Example 77, 6-{6-[2-(2,7-Dimethyl-benzo[b]thiophen-3-yl)-ethylamino]-pyrimidin-4-yl}-benzofuran-2-carboxylic acid], the IC50 [1] was 6 nM and the IC50 [2] was 1310 nM.
Compound `CCOc1cc(-c2cc(NCCc3c(C)oc4c(OC)ccc(F)c34)ncn2)ccc1C(=O)O` [Example 67, 2-Ethoxy-4-{6-[2-(4-fluoro-7-methoxy-2-methyl-benzofuran-3-yl)-ethylamino]-pyrimidin-4-yl}-benzoic acid] has an IC50 [1] of 73 nM and an IC50 [2] of 369 nM.
With `Cc1oc2ccccc2c1CCNc1cc(-c2ccc(C(=O)O)c(SC(C)C)c2)ncn1` [Example 92, 2-Isopropylsulfanyl-4-{6-[2-(2-methyl-benzofuran-3-yl)-ethylamino]-pyrimidin-4-yl}-benzoic acid] the IC50 [1] was 6 nM and the IC50 [2] was 816 nM.
Compound `CCOc1cc(-c2cc(NCCc3c(C)sc4c(C)cccc34)ncn2)sc1C(=O)O` [Example 36, 5-{6-[2-(2,7-Dimethyl-benzo[b]thiophen-3-yl)-ethylamino]-pyrimidin-4-yl}-3-ethoxy-thiophene-2-carboxylic acid] has an IC50 [1] of 1 nM and an IC50 [2] of 26 nM.
In the case of `Cc1cc(-c2cc(NCCc3c(C)oc4c(C)cc(Cl)cc34)ncn2)sc1C(=O)O` [Example 4, 5-{6-[2-(5-Chloro-2,7-dimethyl-benzofuran-3-yl)-ethylamino]-pyrimidin-4-yl}-3-methyl-thiophene-2-carboxylic acid], the IC50 [1] is reported as 11 nM and the IC50 [2] is reported as 262 nM.
For `Cc1cc(-c2cc(NCCc3c(C)sc4c(C)cccc34)ncn2)sc1C(=O)O` [Example 3, 5-{6-[2-(2,7-Dimethyl-benzo[b]thiophen-3-yl)-ethylamino]-pyrimidin-4-yl}-3-methyl-thiophene-2-carboxylic acid], the IC50 [1] was 18 nM and the IC50 [2] was 202 nM.
`CSc1cc(-c2cc(NCCc3c(C)sc4c(C)ccc(Cl)c34)ncn2)ccc1C(=O)O` [Example 19, 4-{6-[2-(4-Chloro-2,7-dimethyl-benzo[b]thiophen-3-yl)-ethylamino]-pyrimidin-4-yl}-2-methylsulfanyl-benzoic acid] showed an IC50 [1] of 12 nM and an IC50 [2] of 414 nM.
`CCOc1cc(-c2cc(NCCc3c(C)oc4c(OC)cc(F)c(F)c34)ncn2)sc1C(=O)O` [Example 31, 5-{6-[2-(4,5-Difluoro-7-methoxy-2-methyl-benzofuran-3-yl)-ethylamino]-pyrimidin-4-yl}-3-ethoxy-thiophene-2-carboxylic acid] was tested, and the IC50 [1] was 11 nM and the IC50 [2] was 27 nM.
Compound `CCOc1cc(-c2cc(NCCc3c(CC)oc4c(C)cc(F)cc34)ncn2)sc1C(=O)O` [Example 39, 3-Ethoxy-5-{6-[2-(2-ethyl-5-fluoro-7-methyl-benzofuran-3-yl)-ethylamino]-pyrimidin-4-yl}-thiophene-2-carboxylic acid] has an IC50 [1] of 31 nM and an IC50 [2] of 50 nM.
`CCCSc1cc(-c2cc(NCCc3c(C)oc4ccccc34)ncn2)ccc1C(=O)O` [Example 89, 4-{6-[2-(2-Methyl-benzofuran-3-yl)-ethylamino]-pyrimidin-4-yl}-2-propylsulfanyl-benzoic acid] was tested, and the IC50 [1] was 10 nM and the IC50 [2] was 1030 nM.
`Cc1sc2c(C)cccc2c1CCNc1cc(-c2ccc3c(C(=O)O)coc3c2)ncn1` [Example 76, 6-{6-[2-(2,7-Dimethyl-benzo[b]thiophen-3-yl)-ethylamino]-pyrimidin-4-yl}-benzofuran-3-carboxylic acid] gave an IC50 [1] of 10 nM and an IC50 [2] of 1140 nM.
